Activity calls are given as the source filed them. No rule for the calls is given here.
Tested on: rodent carcinogenicity bioassays, tumor incidence
Assay: CCRIS carcinogenicity studies
In short: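 Archive of carcinogenicity, mutagenicity, tumor promotion and tumor inhibition results drawn from journals, NCI reports and other sources, expert-reviewed; covers 1985-2011 and is no longer updated.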

## CCN(N=O)C(=O)NCC(C)=O
Species: RAT, Strain/Sex: F344/FEMALE, Route: GAVAGE, Dose: 0, 9.5, 19 MG/ML IN CORN OIL/ETHYL ACETATE (2:1) 2/WK FOR 30 WK (STUDY DURATION: LIFETIME), Dose: 0, 9.5, 19 MG/ML IN CORN OIL/ETHYL ACETATE (2:1) 2/WK FOR 30 WK (STUDY DURATION: LIFETIME), Tumor Site: Type of Lesion: LUNG: TUMOR, MAMMARY GLAND: CARCINOMA, UTERUS: TUMOR, FORESTOMACH: TUMOR, SPLEEN: TUMOR, ZYMBAL GLAND: TUMOR, SMALL INTE, Tumor Site: Type of Lesion: LUNG: TUMOR, MAMMARY GLAND: CARCINOMA, UTERUS: TUMOR, FORESTOMACH: TUMOR, SPLEEN: TUMOR, ZYMBAL GLAND: TUMOR, SMALL INTE
  carcinogen call: active; positive
Species: RAT, Strain/Sex: F344/FEMALE, Route: ORAL, Dose: 0, 40, 80 MG/L IN DRINKING WATER 5 D/WK FOR 30 WK (STUDY DURATION: LIFETIME), Dose: 0, 40, 80 MG/L IN DRINKING WATER 5 D/WK FOR 30 WK (STUDY DURATION: LIFETIME), Tumor Site: Type of Lesion: LIVER: TUMOR, LUNG: TUMOR, MAMMARY GLAND: CARCINOMA, UTERUS: TUMOR, THYROID: FOLLICULAR TUMOR, COLON: TUMOR, NERVOUS SYS, Tumor Site: Type of Lesion: LIVER: TUMOR, LUNG: TUMOR, MAMMARY GLAND: CARCINOMA, UTERUS: TUMOR, THYROID: FOLLICULAR TUMOR, COLON: TUMOR, NERVOUS SYS
  carcinogen call: active; positive
Species: RAT, Strain/Sex: F344/MALE, Route: GAVAGE, Dose: 0, 9.5, 19 MG/ML IN CORN OIL/ETHYL ACETATE (2:1) 2/WK FOR 30 WK (STUDY DURATION: LIFETIME), Dose: 0, 9.5, 19 MG/ML IN CORN OIL/ETHYL ACETATE (2:1) 2/WK FOR 30 WK (STUDY DURATION: LIFETIME), Tumor Site: Type of Lesion: LIVER: TUMOR, LUNG: TUMOR, MESOTHELIUM: TUMOR, NERVOUS SYSTEM: TUMOR, THYROID: FOLLICULAR TUMOR, FORESTOMACH: TUMOR, SPL, Tumor Site: Type of Lesion: LIVER: TUMOR, LUNG: TUMOR, MESOTHELIUM: TUMOR, NERVOUS SYSTEM: TUMOR, THYROID: FOLLICULAR TUMOR, FORESTOMACH: TUMOR, SPL
  carcinogen call: active; positive
Species: RAT, Strain/Sex: F344/MALE, Route: ORAL, Dose: 0, 40, 80 MG/L IN DRINKING WATER FOR 5 D/WK FOR 30 WK (STUDY DURATION: LIFETIME), Dose: 0, 40, 80 MG/L IN DRINKING WATER FOR 5 D/WK FOR 30 WK (STUDY DURATION: LIFETIME), Tumor Site: Type of Lesion: LUNG: TUMOR, THYROID: FOLLICULAR TUMOR, COLON: TUMOR, MESOTHELIUM: TUMOR, NERVOUS SYSTEM: TUMOR, SKIN: TUMOR, ZYMBAL GLA, Tumor Site: Type of Lesion: LUNG: TUMOR, THYROID: FOLLICULAR TUMOR, COLON: TUMOR, MESOTHELIUM: TUMOR, NERVOUS SYSTEM: TUMOR, SKIN: TUMOR, ZYMBAL GLA
  carcinogen call: active; positive

## OCc1c2ccccc2c2ccc3cccc4ccc1c2c43
Species: MOUSE, Strain/Sex: B6C3F1/MALE, Route: INTRAPERITONEAL, Dose: 0, 0.0025, 0.005, 0.015 UMOL/G ONCE AT 12 DAYS OF AGE (STUDY DURATION: 10 MO), Dose: 0, 0.0025, 0.005, 0.015 UMOL/G ONCE AT 12 DAYS OF AGE (STUDY DURATION: 10 MO), Tumor Site: Type of Lesion: LIVER: HEPATOMA
  carcinogen call: active; positive
Species: RAT, Strain/Sex: SPRAGUE-DAWLEY/FEMALE, Route: SUBCUTANEOUS, Dose: 0, 0.2 UMOL 3/WK FOR 20 DOSES (STUDY DURATION: 52 WK), Tumor Site: Type of Lesion: INJECTION SITE: SARCOMA
  carcinogen call: active; positive

## NCCN
Species: MOUSE, Strain/Sex: C3H/MALE, Route: DERMAL, Dose: 0, 25 µL OF A 1% DEIONIZED WATER SOLUTION 3/WK FOR LIFESPAN (STUDY DURATION: LIFESPAN)
  carcinogen call: inactive; negative
Species: RAT, Strain/Sex: F344/FEMALE, Route: ORAL, Dose: 0, 20, 100, 350 MG/KG/D IN DIET FOR 104 WK (STUDY DURATION: 104 WK), Dose: 0, 20, 100, 350 MG/KG/D IN DIET FOR 104 WK (STUDY DURATION: 104 WK)
  carcinogen call: inactive; negative
Species: RAT, Strain/Sex: F344/MALE, Route: ORAL, Dose: 0, 20, 100, 350 MG/KG/D IN DIET FOR 104 WK (STUDY DURATION: 104 WK), Dose: 0, 20, 100, 350 MG/KG/D IN DIET FOR 104 WK (STUDY DURATION: 104 WK)
  carcinogen call: inactive; negative

## O=C1CCC(=O)O1
Species: MOUSE, Strain/Sex: B6C3F1/FEMALE, Route: GAVAGE, Dose: 0, 75, 150 MG/KG IN CORN OIL 5 D/WK FOR 103 WK (STUDY DURATION: 104 WK), Dose: 0, 75, 150 MG/KG IN CORN OIL 5 D/WK FOR 103 WK (STUDY DURATION: 104 WK)
  carcinogen call: inactive; negative
Species: MOUSE, Strain/Sex: B6C3F1/MALE, Route: GAVAGE, Dose: 0, 38, 75 MG/KG IN CORN OIL 5 D/WK FOR 103 WK (STUDY DURATION: 104 WK), Dose: 0, 38, 75 MG/KG IN CORN OIL 5 D/WK FOR 103 WK (STUDY DURATION: 104 WK)
  carcinogen call: inactive; negative
Species: RAT, Strain/Sex: F344/FEMALE, Route: GAVAGE, Dose: 0, 50, 100 MG/KG IN CORN OIL 5 D/WK FOR 103 WK (STUDY DURATION: 104 WK), Dose: 0, 50, 100 MG/KG IN CORN OIL 5 D/WK FOR 103 WK (STUDY DURATION: 104 WK)
  carcinogen call: inactive; negative
Species: RAT, Strain/Sex: F344/MALE, Route: GAVAGE, Dose: 0, 50, 100 MG/KG IN CORN OIL 5 D/WK FOR 103 WK (STUDY DURATION: 104 WK), Dose: 0, 50, 100 MG/KG IN CORN OIL 5 D/WK FOR 103 WK (STUDY DURATION: 104 WK)
  carcinogen call: inactive; negative

## CCOP(=S)(OCC)Oc1ccc([N+](=O)[O-])cc1
Species: MOUSE, Strain/Sex: B6C3F1/FEMALE, Route: ORAL, Dose: 0, 80, 160 PPM IN DIET, Dose: 0, 80, 160 PPM IN DIET
  carcinogen call: inactive; negative
Species: MOUSE, Strain/Sex: B6C3F1/MALE, Route: ORAL, Dose: 0, 80, 160 PPM IN DIET, Dose: 0, 80, 160 PPM IN DIET
  carcinogen call: inactive; negative
Species: RAT, Strain/Sex: OSBORNE-MENDEL/FEMALE, Route: ORAL, Dose: 0, 23, 45 PPM IN DIET FOR 80 WK (STUDY DURATION: 112-113 WK), Dose: 0, 23, 45 PPM IN DIET FOR 80 WK (STUDY DURATION: 112-113 WK), Tumor Site: Type of Lesion: ADRENAL GLAND: CORTICAL ADENOMA OR CARCINOMA
  carcinogen call: equivocal
Species: RAT, Strain/Sex: OSBORNE-MENDEL/MALE, Route: ORAL, Dose: 0, 32, 63 PPM IN DIET FOR 80 WK (STUDY DURATION: 112-113 WK), Dose: 0, 32, 63 PPM IN DIET FOR 80 WK (STUDY DURATION: 112-113 WK), Tumor Site: Type of Lesion: ADRENAL GLAND: CORTICAL ADENOMA OR CARCINOMA
  carcinogen call: equivocal

## CC1=C[C@H]2O[C@@H]3[C@H](O)[C@@H](O)[C@](C)([C@@]2(CO)[C@H](O)C1=O)[C@]31CO1
Species: MOUSE, Strain/Sex: C57BL/6CRSLC/FEMALE, Route: ORAL, Dose: 0, 6, 12, 30 PPM IN DIET FOR 104 WK (STUDY DURATION: 104 WK), Dose: 0, 6, 12, 30 PPM IN DIET FOR 104 WK (STUDY DURATION: 104 WK)
  carcinogen call: inactive; negative

## Nc1ncc([N+](=O)[O-])s1
Species: MOUSE, Strain/Sex: B6C3F1/FEMALE, Route: ORAL, Dose: 0, 50, 100 PPM IN DIET, Dose: 0, 50, 100 PPM IN DIET
  carcinogen call: inactive; negative
Species: MOUSE, Strain/Sex: B6C3F1/MALE, Route: ORAL, Dose: 0, 50, 100 PPM IN DIET, Dose: 0, 50, 100 PPM IN DIET
  carcinogen call: inactive; negative
Species: RAT, Strain/Sex: F344/FEMALE, Route: ORAL, Dose: 0, 300, 600 PPM IN DIET, Dose: 0, 300, 600 PPM IN DIET
  carcinogen call: inactive; negative

## OCCN(CCO)C(=S)S
Species: MOUSE, Strain/Sex: B6AKF1/MALE, Route: GAVAGE/ORAL, Dose: 464 MG/KG FROM D 7-28 OF LIFE THEN 1112 MG/KG IN DIET, Tumor Site: Type of Lesion: LIVER: HEPATOMA
  carcinogen call: active; positive
Species: MOUSE, Strain/Sex: B6C3F1/MALE,FEMALE, Route: GAVAGE/ORAL, Dose: 464 MG/KG FROM D 7-28 OF LIFE THEN 1112 MG/KG IN DIET, Tumor Site: Type of Lesion: LIVER: HEPATOMA
  carcinogen call: active; positive
Species: RAT, Strain/Sex: STRAIN-CD/MALE,FEMALE, Route: ORAL, Dose: 500, 1000 PPM IN DIET FOR 78 WK
  carcinogen call: inactive; negative
